Reference: the OligoGym collection
Several values for one entry are separate records, joined by “and”; a condition that tells them apart may be missing. Identical values can stand only once. After the bases stand the sugars from the 5' end (letter, count) and the backbone: PS all phosphorothioate, else s phosphorothioate and o phosphodiester by linkage. Methylation of C is not given here. e = 2'-O-(2-methoxyethyl) (MOE); k = constrained ethyl (cEt); d = 2'-deoxy (DNA)

Key:
KRAS = conditions: ASO
IRF5 = conditions: ASO

Sequence “ACCATTCAAAGTTCAC (sugars kkkddddddddkekek, PS)” has a target mRNA inhibition (KRAS; A431, 2 µM) of 26%.
Work on TCATTACTTTTTGACA (sugars k3 d10 k3, PS) yielded a target mRNA inhibition (KRAS; A431, 2 µM) of 4%.
“CCATTTATGTGACTAG (sugars k3 d9 k3 e1, PS)” gave a target mRNA inhibition (KRAS; A431, 0.185 µM) of 28%, a target mRNA inhibition (KRAS; A431, 0.556 µM) of 47% and a target mRNA inhibition (KRAS; A431, 1.667 µM) of 53%. The target mRNA inhibition (KRAS; A431, 2 µM) was 49% and the target mRNA inhibition (KRAS; A431, 5 µM) was 66%.
Sequence “AGGAGTCTTTATAGTA (sugars kkdddddddddkekek, PS)” has a target mRNA inhibition (KRAS; A431, 2 µM) of 31%.
“CATTTATGTGACTAGA (sugars kddddddddddkekek, PS)” was tested, and the target mRNA inhibition (KRAS; A431, 2 µM) was 24%.
With AATCCATTTATGTGAC (sugars k3 d10 k3, PS) the target mRNA inhibition (KRAS; A431, 2 µM) was 26%.
TGTAGGGCATTTCTGA (sugars k3 d10 k3, PS) gave a target mRNA inhibition (KRAS; A431, 2 µM) of 0%.
TTCTGTCTATTCATAC (sugars k3 d10 k3, PS) gave a target mRNA inhibition (KRAS; A431, 2 µM) of 10%.
GATTGTGCTGAGCTTG (sugars k3 d10 k3, PS) was tested, and the target mRNA inhibition (KRAS; A431, 2 µM) was 63%.
With AATTAATCCATTTATG (sugars k3 d10 k3, PS) the target mRNA inhibition (KRAS; A431, 2 µM) was 16%.
TCACTTCATTGTTTAA (sugars k3 d10 k3, PS) was tested, and the target mRNA inhibition (KRAS; A431, 2 µM) was 32%.
“AGTGATTAGGTCAAAT (sugars kdddddddddkekeke, PS)” gave a target mRNA inhibition (KRAS; A431, 2 µM) of 12%.
TGATTTGTCAGCAGGA (sugars k3 d10 k3, PS) was tested, and the target mRNA inhibition (KRAS; A431, 0.185 µM) was 19% and 0%, the target mRNA inhibition (KRAS; A431, 0.556 µM) was 58% and 36% and the target mRNA inhibition (KRAS; A431, 1.667 µM) was 72% and 58%. The target mRNA inhibition (KRAS; A431, 2 µM) was 59% and the target mRNA inhibition (KRAS; A431, 5 µM) was 81% and 74%.
In the case of CAGTGTGACTCAGTTA (sugars k3 d10 k3, PS), the target mRNA inhibition (KRAS; A431, 2 µM) is reported as 53%.
CATTGTTTAAAAAAAA (sugars k3 d10 k3, PS) gave a target mRNA inhibition (KRAS; A431, 2 µM) of 0%.
Sequence TTAGGAGTCTTTATAG (sugars k3 d10 k3, PS) has a target mRNA inhibition (KRAS; A431, 2 µM) of 30%.
“TGATTTGTCAGCAGGA (sugars kkdddddddddkekek, PS)” was tested, and the target mRNA inhibition (KRAS; A431, 2 µM) was 45%.
Work on ACCATTCAAAGTTCAC (sugars k3 d10 k3, PS) yielded a target mRNA inhibition (KRAS; A431, 2 µM) of 34%.
“ACCATTCAAAGTTCAC (sugars kdddddddddkekeke, PS)” was tested, and the target mRNA inhibition (KRAS; A431, 2 µM) was 15%.
Sequence ATTGTGCTGAGCTTGA (sugars k3 d10 k3, PS) has a target mRNA inhibition (KRAS; A431, 2 µM) of 51%.
In the case of TCCAGTGATACTTTCA (sugars k3 d10 k3, PS), the target mRNA inhibition (KRAS; A431, 2 µM) is reported as 51%.
TATTAGGAGTCTTTAT (sugars k3 d10 k3, PS) showed a target mRNA inhibition (KRAS; A431, 2 µM) of 13%.
Work on “TGATTTGTCAGCAGGA (sugars kddddddddddkekek, PS)” yielded a target mRNA inhibition (KRAS; A431, 2 µM) of 47%.
With GTGTTTATGCAATGTT (sugars k3 d10 k3, PS) the target mRNA inhibition (KRAS; A431, 0.125 µM) was 83%, the target mRNA inhibition (KRAS; A431, 0.185 µM) was 31% and the target mRNA inhibition (KRAS; A431, 0.556 µM) was 52%. For the same sequence, the target mRNA inhibition (KRAS; A431, 1.667 µM) was 77%, the target mRNA inhibition (KRAS; A431, 5 µM) was 89% and the target mRNA inhibition (KRAS; NCI-H460, 0.037 µM) was 76.8%.
Sequence TCAACTGCATGCACCA (sugars k3 d10 k3, PS) has a target mRNA inhibition (KRAS; A431, 2 µM) of 52%.
ATCCAGTATTAACACA (sugars k3 d10 k3, PS) gave a target mRNA inhibition (KRAS; A431, 2 µM) of 0%.
For “AGATTGTGCTGAGCTT (sugars kkddddddddddkeke, PS)”, the target mRNA inhibition (KRAS; A431, 2 µM) was 40%.
“TATTTCTGCTCCAGGT (sugars kkdddddddddkekek, PS)” gave a target mRNA inhibition (IRF5; KARPAS-229, 4 µM) of 5%.
“CATTCCATATACACAC (sugars k2 d9 e3 k2, PS)” gave a target mRNA inhibition (IRF5; KARPAS-229, 4 µM) of 21%.
“GAGTGAGACGAGCAAA (sugars kkddddddddkekekk, PS)” showed a target mRNA inhibition (IRF5; KARPAS-229, 4 µM) of 17%.
With “TTGTCTAGTGTCATGG (sugars kkkdddddddddkeke, PS)” the target mRNA inhibition (IRF5; KARPAS-229, 4 µM) was 39%.
Sequence “CATCTCCACATCAGTC (sugars kkddddddddkekekk, PS)” has a target mRNA inhibition (IRF5; KARPAS-229, 4 µM) of 23%.
With “AGGAGTGAGACGAGCA (sugars kkkddddddddkdkdk, PS)” the target mRNA inhibition (IRF5; KARPAS-229, 4 µM) was 37%.
For “CTTGGTCTTGACCTCC (sugars kdddddddddkekeke, PS)”, the target mRNA inhibition (IRF5; KARPAS-229, 4 µM) was 0%.
Work on ACTGTATTACCTATAC (sugars k3 d10 k3, PS) yielded a target mRNA inhibition (IRF5; KARPAS-229, 4 µM) of 22%.
In the case of GAGTGAGACGAGCAAA (sugars k3 d10 k3, PS), the target mRNA inhibition (IRF5; KARPAS-229, 4 µM) is reported as 27%.
For “GGTCTTGACCTCCCGC (sugars kkkdddddddddkeke, PS)”, the target mRNA inhibition (IRF5; KARPAS-229, 4 µM) was 7%.
“CAATTTTGCATTCCAT (sugars kddddddddddkekek, PS)” gave a target mRNA inhibition (IRF5; KARPAS-229, 4 µM) of 21%.
AAGGGCACAGCGCAGG (sugars k3 d10 k3, PS) was tested, and the target mRNA inhibition (IRF5; KARPAS-229, 4 µM) was 48% and 42%.
For “GCATTCCATATACACA (sugars k3 d9 k3 e1, PS)”, the target mRNA inhibition (IRF5; KARPAS-229, 4 µM) was 25%.
Work on “CGGTCTTTGAGGTCTG (sugars kekdddddddddeekk, PS)” yielded a target mRNA inhibition (IRF5; KARPAS-229, 4 µM) of 49%.
“GCATTCCATATACACA (sugars kkkdddddddddkeke, PS)” gave a target mRNA inhibition (IRF5; KARPAS-229, 4 µM) of 45%.
Sequence “CTGTCACATCTCCACA (sugars kkkddddddddkekek, PS)” has a target mRNA inhibition (IRF5; KARPAS-229, 4 µM) of 0%.
In the case of “CATTCCATATACACAC (sugars kkddddddddddkeke, PS)”, the target mRNA inhibition (IRF5; KARPAS-229, 4 µM) is reported as 30%.
GGTGTATTTCCCTGTC (sugars k3 d10 k3, PS) was tested, and the target mRNA inhibition (IRF5; KARPAS-229, 0.44444 µM) was 32% and 25%, the target mRNA inhibition (IRF5; KARPAS-229, 1.33333 µM) was 38% and 56% and the target mRNA inhibition (IRF5; KARPAS-229, 12 µM) was 69% and 67%.
In the case of “AGTCATGGGCGTGAGGC (sugars kkddddddddkekekkd, PS)”, the target mRNA inhibition (IRF5; KARPAS-229, 4 µM) is reported as 17%.
Work on “TCACCACTGTGTACCC (sugars k3 d9 k3 e1, PS)” yielded a target mRNA inhibition (IRF5; KARPAS-229, 4 µM) of 21%.
“CAATTTTGCATTCCAT (sugars kdddddddddkekeke, PS)” was tested, and the target mRNA inhibition (IRF5; KARPAS-229, 4 µM) was 19%.
With “TTGTCTAGTGTCATGG (sugars kekdddddddddeekk, PS)” the target mRNA inhibition (IRF5; KARPAS-229, 4 µM) was 55%.
With “CATTCCATATACACAC (sugars kdddddddddkekeke, PS)” the target mRNA inhibition (IRF5; KARPAS-229, 4 µM) was 7%.
In the case of “GAGTCATGGGCTGAGG (sugars kkddddddddddkeke, PS)”, the target mRNA inhibition (IRF5; KARPAS-229, 4 µM) is reported as 40%.
Sequence “ACCATTCTATGCCTTT (sugars kkkdddddddddkeke, PS)” has a target mRNA inhibition (IRF5; KARPAS-229, 4 µM) of 49%.
